Experimental data taken from US20120100188A1, “SOLID STATE FORMS OF PALIPERIDONE SALTS AND PROCESS FOR THE PREPARATION THEREOF” (Actavis Group PTC ehf, priority 2009, published 2012).

Tests used:
Type in all cases: physicochemical
[1] = Solubility test of paliperidone and its salts in methanol (100 mg of sample); conditions: 100 mg of sample used
Protocol: (§1) The solubility data of paliperidone and solid state forms of paliperidone salts is furnished in the below table. The 100 mg of sample was used for solubility test.

[2] = Stability of the solid state form (as stated, no test data); conditions: room temperature, enhanced temperature, relative high humidities, aqueous media
Excerpt: In one embodiment, the process disclosed herein provides stable solid state forms of paliperidone salts. The term “stable solid state form” refers to stability of the solid state form under the standard temperature and humidity conditions of testing of pharmaceutical products, wherein the stability is indicated by preservation of the original polymorphic form.

[3] = Solubility test of paliperidone and its salts in water (100 mg of sample); conditions: 100 mg of sample used
Protocol: as §1

Row | Solubility Methanol [1] | Solubility Water [3] | Structure (SMILES) | Stability of solid state form [2]
1 | Insoluble |  | Cc1nc2n(c(=O)c1CCN1CCC(c3noc4cc(F)ccc34)CC1)CCCC2O.O=C(O)/C=C/C(=O)O (stereo not shown) | stable at room temperature, enhanced temperature, at relative high humidities, and in aqueous media
2 | Insoluble | Insoluble | Cc1nc2n(c(=O)c1CCN1CCC(c3noc4cc(F)ccc34)CC1)CCCC2O (racemic) [Paliperidone, (±)-3-[2-[4-(6-fluoro-1,2-benzisoxazol-3-yl)-1-piperidinyl]ethyl]-6,7,8,9-tetrahydro-9-hydroxy-2-methyl-4H-pyrido[1,2-a]pyrimidin-4-one] | 
